# Reference: the supplement of paper PMC13380429
# Tests used:
# Conditions in all cases: 72 h
# Caco-2 [1] = experiment: cell viability relative to DMSO; higher = less toxic
# Calu-3 [2] = experiment: as above
# HepG2 [3] = experiment: as above
# U2OS [4] = experiment: as above
# Vero E6 [5] = experiment: as above
# Caco-2 [6] = experiment: relative viability EC50 (midpoint between 100% and the lowest measured viability); higher = less toxic
# Calu-3 [7] = experiment: as above
# HepG2 [8] = experiment: as above
# U2OS [9] = experiment: as above
# Vero E6 [10] = experiment: as above
# Caco-2 [11] = experiment: drug sensitivity score (DSS) for viability; higher = more toxic; extreme values may be limits of the assay
# Calu-3 [12] = experiment: as above
# HepG2 [13] = experiment: as above
# U2OS [14] = experiment: as above
# Vero E6 [15] = experiment: as above
SMILES,cell viability (Caco-2 [1]; 1 nM) [%],cell viability (Caco-2 [1]; 10 nM) [%],cell viability (Caco-2 [1]; 100 nM) [%],cell viability (Caco-2 [1]; 1000 nM) [%],cell viability (Caco-2 [1]; 10000 nM) [%],cell viability (Calu-3 [2]; 1 nM) [%],cell viability (Calu-3 [2]; 10 nM) [%],cell viability (Calu-3 [2]; 100 nM) [%],cell viability (Calu-3 [2]; 1000 nM) [%],cell viability (Calu-3 [2]; 10000 nM) [%],cell viability (HepG2 [3]; 1 nM) [%],cell viability (HepG2 [3]; 10 nM) [%],cell viability (HepG2 [3]; 100 nM) [%],cell viability (HepG2 [3]; 1000 nM) [%],cell viability (HepG2 [3]; 10000 nM) [%],cell viability (U2OS [4]; 1 nM) [%],cell viability (U2OS [4]; 10 nM) [%],cell viability (U2OS [4]; 100 nM) [%],cell viability (U2OS [4]; 1000 nM) [%],cell viability (U2OS [4]; 10000 nM) [%],cell viability (Vero E6 [5]; 1 nM) [%],cell viability (Vero E6 [5]; 10 nM) [%],cell viability (Vero E6 [5]; 100 nM) [%],cell viability (Vero E6 [5]; 1000 nM) [%],cell viability (Vero E6 [5]; 10000 nM) [%],relative viability EC50 (Caco-2 [6]) [µM],relative viability EC50 (Calu-3 [7]) [µM],relative viability EC50 (HepG2 [8]) [µM],relative viability EC50 (U2OS [9]) [µM],relative viability EC50 (Vero E6 [10]) [µM],drug sensitivity score (Caco-2 [11]),drug sensitivity score (Calu-3 [12]),drug sensitivity score (HepG2 [13]),drug sensitivity score (U2OS [14]),drug sensitivity score (Vero E6 [15])
C=CCN1CC[C@]2(C)c3cc(O)ccc3C[C@H]1[C@H]2C,97.3,99,102,103,96.3,102,90.2,94.7,90.3,93.8,98,95.4,108,104,117,98.6,98.2,103,99.2,101,96.9,102,93.4,100,107,> 10,> 10,> 10,> 10,> 10,0,0,0,0,0
CC(C)N(CCCNC(=O)Nc1ccc(C(C)(C)C)cc1)C[C@H]1O[C@@H](n2ccc3c(N)ncnc32)[C@H](O)[C@@H]1O,99.7,97.2,95.2,86.5,103,96.3,106,92.4,102,108,104,105,107,91.5,111,94.1,100,92.9,102,101,94.3,97,97.4,99.9,99.5,> 10,> 10,> 10,> 10,> 10,0,0,0,0,0
CC(C)c1ccc(CC(=O)N2CCC[C@@H](c3cccc(OC(C)(C)C(=O)O)c3)C2)cc1,92.6,100,93.2,97.6,96.2,87.3,94.5,104,108,98.6,98.3,106,104,106,108,103,99.5,99.7,99.6,103,106,103,101,97.4,96.8,> 10,> 10,> 10,> 10,> 10,0,0,0,0,0
CC(O)(C(=O)Nc1ccc(S(=O)(=O)c2ccccc2)cc1)C(F)(F)F (configuration not stated),94.9,90.6,97,107,95.9,101,98.1,99.8,82.2,89.1,100,90.8,96.4,102,109,99.2,100,97.4,104,102,98.4,93.1,97.9,89.6,95.3,> 10,> 10,> 10,> 10,> 10,0,2.1,0,0,0
CC1(C)CCC(C)(C)c2c1cc(C(=O)Nc1cc(F)c(C(=O)O)c(F)c1)c(O)c2Cl,105,94.3,96,86.9,85.7,105,92.8,89.9,86.5,85.7,102,105,115,112,92.7,100,96.9,90.7,97.2,92.7,95.4,105,105,94.2,95.5,> 10,> 10,> 10,> 10,> 10,0.8,1.9,0,0,0
CCCCCCCCc1ccc(-c2ccc(C(=O)O)cc2)cc1,100,107,81.5,98.7,97.3,,,,,,101,99.8,97.2,101,97.3,99,106,96.8,93,95,101,99.7,97.7,97.7,106,> 10,,> 10,> 10,> 10,0,,0,0,0
CN1CCC(c2c[nH]c3ccc(O)cc23)CC1,98.7,100,95.4,100,92.1,91.9,92.8,87.9,98.7,90.3,98.5,96,94.4,83.4,100,98,103,98.7,102,95.8,105,102,98.8,91.7,101,> 10,> 10,> 10,> 10,> 10,0,0,0,0,0
CN1CCN(C(=O)c2cc3cc(Cl)ccc3[nH]2)CC1,103,107,102,89.9,109,110,89.7,106,93.7,93.8,98.1,104,92.5,116,94.8,99.9,100,104,103,95.6,97.3,96.3,98.6,100,99.8,> 10,> 10,> 10,> 10,> 10,0,0,0,0,0
CNCCN(C)Cc1c[nH]nc1-c1ccc(O[C@H]2C[C@H](OCCC3CCOCC3)C2)cc1,99.7,100,107,90.4,99.6,96.2,97.3,94.1,100,100,98,102,109,96.8,90.9,99.5,97.6,100,96.4,97,100,105,95.9,102,101,> 10,> 10,> 10,> 10,> 10,0,0,0,0,0
CN[C@H](CNC(=O)N1CCC[C@@H]([C@@H](OCCNC(=O)OC)c2cccc(Cl)c2)C1)C[C@H]1CCCOC1,98.2,96.1,97.1,90.1,94.5,103,96.2,102,102,98.1,101,108,92.5,98.6,95,97.3,98.1,106,97.7,99.1,101,101,98.4,107,98.5,> 10,> 10,> 10,> 10,> 10,0,0,0,0,0
COC(=O)c1c(C)[nH]c(C)c1C(=O)c1ccccc1Cc1ccccc1,98.6,97.1,98.1,99.9,84.8,90.1,106,89.8,108,90.1,99.2,94.8,109,95.8,104,99.5,103,87.8,102,92.1,100,101,98,94.1,99.8,> 10,> 10,> 10,> 10,> 10,0.3,0,0,0,0
COc1cc(OC)c(C(=O)CCCCN2CCC3(CC2)NC(=O)NC3=O)cc1NS(=O)(=O)c1ccc(C(F)(F)F)cc1,102,103,107,98.7,93.6,98.2,108,81.2,93.9,93.6,102,111,95.3,89.1,105,98.8,106,99.7,101,94.7,103,106,102,99.5,99.7,> 10,> 10,> 10,> 10,> 10,0,0,0,0,0
COc1ccc(C2CC(c3c(O)cc(C)oc3=O)=NCCS2)c(OC)c1 (configuration not stated),103,98.7,99.5,64.4,47.4,105,105,97.7,80.4,57,94.9,106,92.8,44.4,36.6,102,97,93.9,69.8,33.2,100,105,101,35.9,31,0.73,,0.328,1.1,0.391,7.1,4.4,11.2,7.1,11.8
COc1ccc(Oc2c(Cl)cnn(C3c4ccccc4-c4ccccc43)c2=O)cc1,98.7,95,97,101,88.7,110,99.9,96.4,101,101,103,99.8,93.5,108,100,102,95.1,94.3,97.9,95.5,92.6,107,94.7,96.4,99.6,> 10,> 10,> 10,> 10,> 10,0,0,0,0,0
COc1ccc2c(c1)C(C(=O)N(Cc1ccc(N(C)C)cc1)c1ccc(C(C)C)cc1)CCC2 (configuration not stated),105,96.3,105,95.9,75.5,90.3,98.9,96.9,88,107,99.8,109,98.5,109,102,102,100,102,98.2,100,101,103,99.3,103,105,> 10,> 10,> 10,> 10,> 10,1.5,0,0,0,0
